Data set [1] is described as follows: Laser irradiation to extirpated organ: distribution (cancer/organ ratio) by surface fluorescence, N2-pulsed laser, mice bearing Colon 26. In kind it is in vivo, CDF1 mice. Conditions: mouse, tumor/plasma, sodium salt, 10 mg/kg intravenous. As to the method: (§1) CDF1 mice (5 per group) were implanted with tumor tissues of colon cancer Colon 26. Two weeks after the implantation, the mice were given an intravenous injection of sodium salt of each of compounds (I) and (II) (10 mg/kg for each mouse) which had been diluted with a distilled water for injection. At 3 hrs, 6 hrs and 12 hrs after the injection, the blood samples were collected and the organs bearing the tumor tissue were extirpated, irradiated with N2 -pulsed laser (N2, wavelength: 337 nm, 2 ns), and the excited fluorescent spectrum was measured. The wavelengths in the range of 600 to 900 nm were examined based on the peak wavelength of NADH at 470 nm (determination of the distribution of the test compound in the organ by the surface fluorescence method using N2 -pulsed laser spectrophotometry). That is, cancer/organ (or plasma) ratio was determined by calculating the peak wavelength in the range of 600 to 900 nm when the peak wavelength at 470 nm was considered as the basic value, 1.

The next data set deals with colon cancer Colon 26. The data set is described as above. It counts as in vivo, CDF1 mice. Conditions: sodium salt, 10 mg/kg intravenous. On the procedure:
as §1

Another data set deals with HeLa cells. As to the kind of experiment: HeLa cell survival after diode laser (670 nm) irradiation, MTS-PMS reagent. In kind it is cell-based. Conditions: Homo sapiens, HeLa, light or radiation study, sodium salt, 6 hrs, 670 nm, 25 J/cm^2, read-out: Cell Survival Rate. On the procedure: HeLa cells were seeded in wells of a 96-well plate each containing 100 μl of a culture medium at 5×10^3 /well, and incubated at 37° C. overnight. In each well, the culture medium was removed, and 100 μl of a solution containing sodium salt of either of compound (I) or compound (II) in concentrations of 0, 6.25, 12.5, 25, 50 and 100 μM/ml was added (3 wells for each group of the concentrations) and incubated at 37° C. at for 6 hrs. Each well was washed with PBS(-) once, and then 100 μl of a fresh medium was added. The wells were irradiated using a diode laser (670 nm) under the conditions of 0.44W of laser intensity, 0.785 cm^2 of irradiation area (diameter: 1 cm) and 25 J/cm^2 of laser energy. After the irradiation, each well was incubated at 37° C. overnight and washed with PBS(-) once, then 100 μl of a fresh medium was added. To each well was added 20 μl of MTS-PMS reagent, and the well was further incubated at 37° C. for 2-4 hrs. The absorbance of each well at 492 nm was measured using a microplate reader. The cell survival rate at each of the above mentioned concentrations of the test compound was calculated considering the value for the well of 0 μM/ml of the test compound as 100%.
A general note: Tetrazolium dyes change colour on reduction, which living cells bring about.

For `C=Cc1c(C)c2cc3nc(cc4[nH]c(cc5nc(cc1[nH]2)C(C)(O)C5=CC=NO)c(C)c4CCC(=O)NC(CC(=O)O)C(=O)O)C(CCC(=O)NC(CC(=O)O)C(=O)O)=C3C` (centres unmarked) [Compound (II), reference compound], the Kp at 3 h in data set [1] (3 hr) was found to be 0.3. Further, the Kp at 6 h in data set [1] (6 hr) was determined as 1.12. In addition, the Kp at 12 h in data set [1] (12 hr) stood at 0.66. Also, in the data set on colon cancer Colon 26 (3 hr), the Cancer/Brain ratio came out at 10.10, the Cancer/Kidney ratio turned out to be 0.67, the Cancer/Liver ratio is reported as 0.62 and the Cancer/Lung ratio amounted to 2.35. The Cancer/Muscle ratio in the data set with colon cancer Colon 26 (3 hr) is given as 1.23. Further, in the data set with colon cancer Colon 26 (6 hr), the Cancer/Brain ratio was 16.0, the Cancer/Kidney ratio was 0.59, the Cancer/Liver ratio is 1.01 and the Cancer/Lung ratio turned out to be 4.59. In the data set on colon cancer Colon 26 (6 hr), the Cancer/Muscle ratio is given as 1.26. Also, in the data set on colon cancer Colon 26 (12 hr), the Cancer/Brain ratio is recorded as 15.0, the Cancer/Kidney ratio worked out at 0.95, the Cancer/Liver ratio is on record as 1.11 and the Cancer/Lung ratio is on record as 2.68. The Cancer/Muscle ratio with colon cancer Colon 26 (12 hr) is 2.95. Also, in the data set with HeLa cells (6.25 μM), the viability at 6.25 µM was found to be 81%. Also, the viability at 12.5 µM in the data set on HeLa cells (12.5 μM) turned out to be 54%. In the data set on HeLa cells (25 μM), the viability at 25 µM turned out to be 48%. The viability at 50 µM with HeLa cells (50 μM) stood at 35%. In addition, the viability at 100 µM with HeLa cells (100 μM) amounted to 19%.

Broadly, the Kp is tissue or fluid exposure divided by exposure in the circulation.
